Measured values as given in patent US8188105B2, “Therapeutic agent for inflammatory bowel disease comprising uracil derivative as active ingredient” (Taiho Pharmaceutical Co., Ltd., priority 2007, dated 2012).

System: DSS-induced mouse colitis
Assay: Effect on improvement of pathological conditions in DSS-induced IBD model
Type: in vivo, mice (C57BL/6N Jcl)
Parameters: DAI Score (MEANS ± SD): scale not given here
Settings: 2% DSS day 1 to day 7, drug 30 mg/kg/day day 0 to day 7; for Abnormal stool occurrence: mice with abnormal stool (loose stool, diarrhea, blood in stool) counted on day 8, n=6 per group, control 6, non-treatment 0; for DAI Score (MEANS ± SD): DAI scores per Table 1 (body weight loss, stool hardness, fecal occult blood), day 8, control 5.3 ± 2.1
Experimental: This test was performed in accordance with the method described in PEDIATRIC RESEARCH, Vol. 53, No. 1, 143-147, 2003. […] Dextran sulfate sodium (hereinafter abbreviated as “DSS,” product of Wako Pure Chemical Industries, Ltd.) was dissolved in purified water to 2% w/v, and the solution was fed ad libitum to the mice for seven days through a liquid-feed bottle (day 1 to day 7), to thereby establish ulcerative colitis models. The test groups included a drug-non-administration group (control), and a uracil derivative (1)-administration (30 mg/kg/day) group. A non-treatment group was provided through feeding purified water instead of 2% aqueous DSS solution. The drug was administered for eight days from one day before start of feeding 2% aqueous DSS solution (i.e., from day 0 to day 7). The improvement effect was determined on the day following the final drug administration day (on day 8) by counting occurrence of abnormal stools (loose stool, diarrhea, and visual observation of presence of blood in stool).

Compound	Abnormal stool occurrence	DAI Score (MEANS ± SD)
CNCc1[nH]c(=O)[nH]c(=O)c1Cl [Compound 1, 5-chloro-6-(methylaminomethyl)uracil]	4	
O=c1[nH]c(CN2CCCC2)c(Cl)c(=O)[nH]1 [Compound 2, 5-chloro-6-(1-pyrrolidinylmethyl)uracil]	3	
CN(CCO)Cc1[nH]c(=O)[nH]c(=O)c1Cl [Compound 3, 5-chloro-6-((N-(2-hydroxyethyl)-N-methylamino)methyl)uracil]	3	
Cl.O=c1[nH]c(CSc2nnc[nH]2)c(Cl)c(=O)[nH]1 [Compound 4, 5-chloro-6-(1,2,4-triazole-3-thiomethyl)uracil hydrochloride salt]	0	0.22 ± 0.27
N=C1NCCN1Cc1[nH]c(=O)[nH]c(=O)c1Cl [Compound 5, 5-chloro-6-(1-(2-iminoimidazolidinyl)methyl)uracil]	0	0.28 ± 0.25
O=c1[nH]c(CN2CCCC2)c(Br)c(=O)[nH]1 [Compound 6, 5-bromo-6-(1-pyrrolidinylmethyl)uracil]	2	0.22 ± 0.27
